Reference: PubChem BioAssay (NCI)
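96-well plates; 48 h exposure; 5 concentrations. Endpoints by linear interpolation between flanking doses. Not reached: highest tested concentration assigned. Abbreviation: GI50, concentration required for 50% inhibition of growth. At the TGI there is no net growth.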

How the values were obtained:
Assay in all cases: NCI anticancer screen, dose series, 48 h
NCI-H460 lung = tested on: NCI-H460 lung
HCC-2998 colon = tested on: HCC-2998 colon
MDA-MB-435 = tested on: MDA-MB-435
NCI-H226 lung = tested on: NCI-H226 lung
A498 renal = tested on: A498 renal
SNB-19 CNS = tested on: SNB-19 CNS
OVCAR-5 ovarian = tested on: OVCAR-5 ovarian
DU-145 prostate = tested on: DU-145 prostate
SNB-75 CNS = tested on: SNB-75 CNS

SMILES | TGI (NCI-H460 lung) [µM] | TGI (HCC-2998 colon) [µM] | TGI (MDA-MB-435) [µM] | TGI (NCI-H226 lung) [µM] | TGI (A498 renal) [µM] | TGI (SNB-19 CNS) [µM] | TGI (OVCAR-5 ovarian) [µM] | TGI (DU-145 prostate) [µM] | TGI (SNB-75 CNS) [µM] | GI50 (NCI-H460 lung) [µM] | GI50 (HCC-2998 colon) [µM] | GI50 (MDA-MB-435) [µM] | GI50 (DU-145 prostate) [µM] | GI50 (A498 renal) [µM] | GI50 (SNB-19 CNS) [µM] | GI50 (SNB-75 CNS) [µM] | GI50 (OVCAR-5 ovarian) [µM] | GI50 (NCI-H226 lung) [µM]
O=C(O)c1ccc(N/C(=C(/C(Cl)=C(Cl)Cl)[N+](=O)[O-])n2nnc3ccccc32)cc1 | > 100 | > 100 | > 100 | > 100 | > 100 | > 100 | > 100 |  |  |  |  |  |  |  |  |  |  | 
c1cc2c(cc1C1=NCCN1)c1cc(C3=NCCN3)ccc1n2CC1CCCCC1 | 34.5 |  | 50.3 | 48.7 | > 100 | 46.3 | 95.6 | 77.1 | 30.6 |  |  |  |  |  |  |  |  | 
O=C(N/N=C\c1ccc([N+](=O)[O-])s1)c1ccncc1 | 33.1 | 24 | > 55 | 17.7 | 53 | > 77.4 | > 66.9 | 79.3 | > 100 |  |  |  |  |  |  |  |  | 
NN/C(=N\S(=O)(=O)c1ccc(S(=O)(=O)c2ccccc2)s1)Nc1ccc(Cl)cc1 | 65.7 |  |  | > 100 | > 100 | > 100 | > 100 | 76.5 |  |  |  |  |  |  |  |  |  | 
CCOC(=O)CCC(NC(=O)c1ccc(Nc2nc3ccccc3nc2C(=O)OCC)cc1)C(=O)OCC (configuration not stated) | > 100 | > 100 | > 100 | 12.2 | 18.6 | 14 | > 56.4 | > 35.8 | 6.16 |  |  |  |  |  |  |  |  | 
O=[N+]([O-])C(C=C(n1nnc2ccccc21)n1nnc2ccccc21)=C(n1nnc2ccccc21)n1nnc2ccccc21 | > 100 | > 100 | > 100 | > 100 | > 100 | > 100 | > 100 | > 100 |  |  |  |  |  |  |  |  |  | 
O=C1N(c2ccccc2)C(=S)/C(=C/c2ccc(Cl)cc2)N1c1ccc(Cl)cc1 | > 100 | > 100 | > 100 |  | > 100 | > 100 | > 100 | > 100 | 56.2 |  |  |  |  |  |  |  |  | 
C=C(C)[C@@H]1CC[C@]2(C(=O)NC(C)=O)CC[C@]3(C)[C@H](CC[C@@H]4[C@@]5(C)CCCNC(C)(C)[C@@H]5CC[C@]43C)[C@@H]12 | 3.13 | 2.69 | 3.11 |  | 2.91 | 2.96 | 2.88 | 2.94 | 2.83 | 1.64 | 1.31 | 1.55 | 1.57 | 1.53 | 1.6 | 1.4 | 1.53 | 
O=c1cc(N2CCCC2)[nH]c(=O)n1-c1ccc(Cl)cc1 | > 100 | > 100 | > 100 | > 100 | > 100 | > 100 | > 100 | > 100 | > 100 |  |  |  |  |  |  |  |  | 
O=S(=O)(O)c1ccc2c(N=Nc3ccc(Sc4ccc(N=Nc5c(O)ccc6cc(S(=O)(=O)O)ccc56)cc4)cc3)c(O)ccc2c1 | > 100 | > 100 | > 100 | > 100 |  | > 100 | > 100 | > 100 |  |  |  |  |  |  |  |  |  | 
Cc1cc2ccc(N)nc2[nH]c1=O | > 100 |  | > 100 | > 100 |  | > 100 | > 100 | > 100 | > 100 |  |  |  |  |  |  |  |  | 
Cc1c(O)c(=O)ccn1CCc1ccc(O)cc1 | 52.9 |  | > 100 |  |  | > 100 | > 100 | > 100 |  |  |  |  |  |  |  |  |  | 
COc1ccc(-n2cnc3c(NC(Cc4ccccc4)C(=O)O)ncnc32)cc1 (configuration not stated) | > 100 | > 100 | > 100 | > 100 | > 100 |  | > 100 | > 100 | > 100 |  |  |  |  |  |  |  |  | 
CN(C)CCNC(=O)c1c(O)ccc2c1c1c(n2CCc2ccccc2)C(=O)c2ccccc2C1=O | 11.4 | 2.96 | 5.08 | 35.2 | 31.9 | 23.8 | 29.5 | 20.9 | 28.1 |  |  |  |  |  |  |  |  | 
C=CCNC(=S)/N=C/C(C(=O)Nc1ccccc1C)=C(\C)O | > 100 | > 100 | > 100 | > 100 |  | > 100 | > 100 | > 100 |  |  |  |  |  |  |  |  |  | 
CCOC(=O)c1cc(Br)c(-c2cc(C)co2)[nH]1 | > 100 | > 100 | > 100 | > 100 | > 100 | > 100 | > 100 | > 100 | > 100 |  |  |  |  |  |  |  |  | 
CC(=O)NC1C(OCc2ccccc2)OC(CO)C(O)C1OCC(=O)N[C@@H](C)C(=O)N[C@H](CCC(=O)NCCCNc1ccc([N+](=O)[O-])c2[nH]c3ccccc3c(=O)c12)C(N)=O (some centres not stated) | > 100 | > 100 | > 100 | 65.8 | > 100 | > 100 | > 100 | > 100 | > 100 |  |  |  |  |  |  |  |  | 
C=C(C)[C@@H]1CC[C@]2(CO)CC[C@]3(C)[C@H](CC[C@@H]4[C@@]5(C)CC[C@H](NCO)C(C)(C)[C@@H]5CC[C@]43C)[C@@H]12 | 1.79 |  | 1.78 | 20.5 | 1.69 | 1.82 | 1.56 | 1.58 | 1.4 | 0.918 |  | 0.896 | 0.878 | 0.802 | 0.95 | 0.71 | 0.85 | 8.3
CC(C)=NOC(=O)Nc1cccc2c1OCO2 | > 100 | > 100 | > 100 | > 100 | > 100 | > 100 | > 100 | > 100 | > 100 |  |  |  |  |  |  |  |  | 
O=C1c2cc([N+](=O)[O-])sc2C(=O)c2c([N+](=O)[O-])csc21 | 3.5 | 2.3 | 0.311 | 3.8 | 3.34 | 3.02 | 2.95 | 3.07 | 3.18 |  |  |  |  |  |  |  |  | 
COC(=O)c1cc(/C=C\c2cc(OC)ccc2OC)ccc1OC | > 100 | 45.7 | 61.4 |  | > 100 | > 100 | > 100 | > 100 |  |  |  |  |  |  |  |  |  | 
